Patent US9926324B2, “Heteroaromatic compounds as PI3 kinase modulators and methods of use” (Calitor Sciences, LLC, priority 2012, dated 2018)
Read-outs that look alike come from different tables or passages of the source.

Tests used:
[1] = Pharmacokinetic profiles in rats after intravenous and oral administration; format: in vivo; conditions: for F: oral dose generally 5 or 10 mg/kg; for AUC(0-t) / half-life / Vd: rat, plasma; for Vd: read-out: Vss
Protocol: The compounds disclosed herein are assessed in pharmacokinetic studies in mice, rats, dogs or monkeys. The compounds are administered as a water solution, 2% HPMC+1% TWEEN® 80 in water solution, 5% DMSO+5% solutol in saline, 4% MC suspension or capsule. For the intravenous administration, the animals are generally given at 1 or 2 mg/kg dose. For the oral (p.o.) dosing, mice and rats are generally given 5 or 10 mg/kg dose, and dogs and monkeys are generally given 10 mg/kg dose. The blood samples (0.3 mL) are drawn at 0.25, 0.5, 1.0, 2.0, 3.0, 4.0, 6.0, 8.0, 12 and 24 h time points or 0.083, 0.25, 0.5, 1.0, 2.0, 4.0, 6.0, 8.0 and 24 h time points and centrifuged at 3,000 or 4000 rpm for 2 to 10 min. The plasma solutions are collected, stored at −20° C. or −70° C. until analyzed by LC/MS/MS as described above.

PI3K p110α/p85α (h) = biological target: T1, PI3K p110α/p85α (h) (Homo sapiens, UniProt P42336); assay: PI3K p110α/p85α (h) non-radioactive HTRF assay; format: biochemical
T1 construct: purchased Millipore UK Ltd (assay service)
Protocol: PI3K p110α/p85α (h) is incubated in assay buffer containing 10 μM phosphatidylinositol 4,5-bisphosphate and MgATP (concentration as required). The reaction is initiated by the addition of the ATP solution. After incubation for 30 minutes at room temperature, the reaction is stopped by the addition of stop solution containing EDTA and biotinylated phosphatidylinositol-3,4,5-trisphosphate. Finally, detection buffer is added, which contains europium-labelled anti-GST monoclonal antibody, GST-tagged GRP1 PH domain and streptavidin allophycocyanin. The plate is then read in timeresolved fluorescence mode and the homogenous time-resolved fluorescence (HTRF) signal is determined according to the formula HTRF=10000×(Em665 nm/Em620 nm).
(§1) The kinase assays described herein were performed at Millipore UK Ltd, Dundee Technology Park, Dundee DD2 1SW, UK.

[2] = Compound stability in human liver microsomes; format: in vitro ADME; conditions: for half-life at 5 μM / CLint scaled at 5 μM: pH 7.4; for half-life at 5 μM: read-out: Human T1/2; for CLint scaled at 5 μM: human liver microsomes, in vivo CLint extrapolated
Protocol: (§2) Human or rat liver microsomes incubations were conducted in duplicate in polypropylene tubes. The typical incubation mixtures consisted of human or rat liver microsomes (0.5 mg protein/mL), compounds of interest (5 μM) and NADPH (1.0 mM) in a total volume of 200 μL potassium phosphate buffer (PBS, 100 mM, pH=7.4). Compounds were dissolved in DMSO and diluted with PBS such that the final concentration of DMSO was 0.05%. The enzymatic reactions were commenced with the addition of […] after a 3-min preincubation and incubated in a water bath open to the air at 37° C. Reactions were terminated at various time points (0, 5, 10, 15, 30, 60 min) by adding equal volume of ice-cold acetonitrile. The samples were stored at −80° C. until LC/MS/MS assays.
(§3) The concentrations of compounds in the incubation mixtures of human or rat liver microsomes were determined by a LC/MS/MS method. The ranges of the linearity in the concentration range were determined for each tested compounds.
(§4) A parallel incubation was performed using denatured microsomes as the negative control, and reactions were terminated at various time points (0, 15, 60 min) after incubation at 37° C.
(§5) Dextromethorphan (70 μM) was selected as the positive control, and reactions were terminated at various time points (0, 5, 10, 15, 30, 60 min) after incubation at 37° C. Both positive and negative control samples were included in each assay to ensure the integrity of the microsomal incubation system.
(§6) The concentrations of compounds in human or rat liver microsome incubations were plotted as a percentage of the relevant zero time point control for each reaction. The in vivo CLint were extrapolated (ref: Naritomi Y, Terashita S, Kimura S, Suzuki A, Kagayama A, Sugiyama Y. Prediction of human hepatic clearance from in vivo animal experiments and in vitro metabolic studies with liver microsomes from animals and humans. Drug Metabolism and Disposition 2001, 29: 1316-1324).

[3] = Compound stability in rat liver microsomes; format: in vitro ADME; conditions: for half-life at 5 μM / CLint scaled at 5 μM: pH 7.4; for half-life at 5 μM: read-out: Rat T1/2; for CLint scaled at 5 μM: rat liver microsomes, in vivo CLint extrapolated
Protocol: as §2, §3, §4, §5, §6

mTOR (h) = biological target: T2, mTOR (h) (Homo sapiens, UniProt P42345); assay: mTOR (h) kinase assay (33P-ATP, filter); format: biochemical
T2 construct: purchased Millipore UK Ltd (assay service)
Protocol: mTOR (h) is incubated with 50 mM HEPES pH 7.5, 1 mM EDTA, 0.01% Tween 20, 2 mg/mL substrate, 3 mM Manganese Chloride and [γ-^33P-ATP] (specific activity approx. 500 cpm/pmol, concentration as required). The reaction is initiated by the addition of the MnATP mix. After incubation for 40 minutes at room temperature, the reaction is stopped by the addition of 3% phosphoric acid solution. 10 μL of the reaction is then spotted onto a P30 filtermat and washed three times for 5 minutes in 75 mM phosphoric acid and once in methanol prior to drying and scintillation counting.
as §1

U87MG glioblastoma cells = assay: Tumor xenograft model (U87MG), tumor growth inhibition; format: in vivo, athymic nude mice; conditions: 12 days
Protocol: The efficacy of compounds disclosed herein was evaluated in a standard murine model of tumorigenesis. Human tumor cells (U87MG glioblastoma cells from ATCC) were expended in culture, harvested, and injected subcutaneously onto the rear flank of 6-7 week old female athymic nude mice (BALB/cA nu/nu, Hunan SLAC Laboratory Animal, Co.) (n=6-10 for vehicle group and for each dosing group). When tumors reached a volume of 100-250 mm^3, animals were randomly divided into vehicle control (for example, 5% DMSO+70% Captisol® (30%), 7% HCl (pH1), 18% Captisol® (30%); or 7% DMSO, 7% HCl (pH1), 70% Captisol® (30%), 16% Captisol® (30%), or the like) and compound groups. Subsequent administration of compound by oral gavage begins anywhere from day 0 to day 15 post tumor cell challenge and generally continues with once a day for the duration of the experiment.
Progression of tumor growth is assessed by tumor volumes and recorded as a function of time. The long (L) and short (W) axes of the subcutaneous tumors were measured with calipers twice weekly, and the tumor volume (TV) calculated as (L×W^2)/2). TGI was calculated from the difference between the median tumor volumes of vehicle-treated and drug-treated mice, expressed as a percentage of the median tumor volume of the vehicle-treated control group, by the following relation:
Initial statistical analysis is done by repeated measures analysis of variance (RMANOVA), followed by Scheffe psot hoc testing for multiple comparisons. Vehicle alone (5% DMSO+70% Captisol® (30%), 7% HCl (pH1), 18% Captisol® (30%); or 7% DMSO, 7% HCl (pH1), 70% Captisol® (30%), 16% Captisol® (30%), or the like) is the negative control.

[4] = human liver microsomes 0.5 mg protein/mL, compound 5 μM, NADPH 1.0 mM, 37° C.
[5] = rat liver microsomes 0.5 mg protein/mL, compound 5 μM, NADPH 1.0 mM, 37° C.

T1 sequence (P42336 whole entry): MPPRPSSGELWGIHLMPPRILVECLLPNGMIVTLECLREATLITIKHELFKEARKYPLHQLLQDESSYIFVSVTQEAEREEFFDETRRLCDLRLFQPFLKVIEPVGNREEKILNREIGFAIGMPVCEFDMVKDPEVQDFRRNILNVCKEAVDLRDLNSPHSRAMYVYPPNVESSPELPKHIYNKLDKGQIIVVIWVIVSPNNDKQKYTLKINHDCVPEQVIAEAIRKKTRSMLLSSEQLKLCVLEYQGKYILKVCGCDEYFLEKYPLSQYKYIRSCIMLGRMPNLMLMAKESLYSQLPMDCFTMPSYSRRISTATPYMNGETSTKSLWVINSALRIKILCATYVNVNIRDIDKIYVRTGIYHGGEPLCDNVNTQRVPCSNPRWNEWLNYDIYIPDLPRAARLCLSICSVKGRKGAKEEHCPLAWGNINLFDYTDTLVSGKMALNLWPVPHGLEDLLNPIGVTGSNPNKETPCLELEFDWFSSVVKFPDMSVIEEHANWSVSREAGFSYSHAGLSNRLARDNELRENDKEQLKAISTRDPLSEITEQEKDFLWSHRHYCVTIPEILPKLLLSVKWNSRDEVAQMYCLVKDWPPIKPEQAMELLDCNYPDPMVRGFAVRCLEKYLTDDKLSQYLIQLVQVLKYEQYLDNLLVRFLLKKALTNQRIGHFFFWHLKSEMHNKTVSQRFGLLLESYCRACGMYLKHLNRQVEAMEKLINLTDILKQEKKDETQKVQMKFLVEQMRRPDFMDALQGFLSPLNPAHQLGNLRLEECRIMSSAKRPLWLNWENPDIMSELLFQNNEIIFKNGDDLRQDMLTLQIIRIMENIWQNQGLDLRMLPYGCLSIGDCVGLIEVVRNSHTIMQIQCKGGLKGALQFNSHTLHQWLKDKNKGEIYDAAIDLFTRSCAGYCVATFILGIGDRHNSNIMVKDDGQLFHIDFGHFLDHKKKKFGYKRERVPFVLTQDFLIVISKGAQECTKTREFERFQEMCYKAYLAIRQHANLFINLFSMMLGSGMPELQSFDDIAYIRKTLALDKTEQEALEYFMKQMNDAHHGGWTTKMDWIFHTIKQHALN
T1 sequence (P27986 whole entry partner): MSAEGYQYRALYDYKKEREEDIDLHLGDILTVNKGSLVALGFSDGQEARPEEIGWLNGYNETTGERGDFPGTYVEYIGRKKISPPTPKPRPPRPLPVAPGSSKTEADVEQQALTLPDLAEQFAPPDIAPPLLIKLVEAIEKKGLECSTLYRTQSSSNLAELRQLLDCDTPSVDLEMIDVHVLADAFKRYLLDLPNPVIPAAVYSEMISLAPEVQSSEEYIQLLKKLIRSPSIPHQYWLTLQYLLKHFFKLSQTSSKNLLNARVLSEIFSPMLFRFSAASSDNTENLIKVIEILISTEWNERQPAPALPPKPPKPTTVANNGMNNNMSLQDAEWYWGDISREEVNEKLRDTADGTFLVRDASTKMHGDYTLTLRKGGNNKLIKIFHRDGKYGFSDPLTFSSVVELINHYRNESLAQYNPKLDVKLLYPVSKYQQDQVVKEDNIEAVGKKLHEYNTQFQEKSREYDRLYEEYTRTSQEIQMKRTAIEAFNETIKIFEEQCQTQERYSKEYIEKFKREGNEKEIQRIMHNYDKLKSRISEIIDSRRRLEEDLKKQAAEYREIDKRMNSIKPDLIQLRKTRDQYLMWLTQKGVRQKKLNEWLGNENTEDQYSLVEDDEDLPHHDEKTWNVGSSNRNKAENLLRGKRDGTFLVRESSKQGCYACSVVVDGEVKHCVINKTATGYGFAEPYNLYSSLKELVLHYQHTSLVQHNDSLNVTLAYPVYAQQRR

| Compound | F ([1]; iv dose 2 mg/kg) [%] | Cl/F ([1]; iv dosing 2 mg/kg) [mL/min/kg] | IC50 (PI3K p110α/p85α (h)) [nM] | half-life at 5 μM [2, 4] [h] | CLint scaled at 5 μM [2] [mL/min/kg] | half-life at 5 μM [3, 5] [h] | CLint scaled at 5 μM [3] [mL/min/kg] | F ([1]; iv dose 1 mg/kg) [%] | Cl/F ([1]; iv dosing 1 mg/kg) [mL/min/kg] | AUC(0-t) ([1]; iv dosing 1 mg/kg) [ng·h/mL] | half-life ([1]; iv dosing 1 mg/kg) [h] | Vd ([1]; iv dosing 1 mg/kg) [L/kg] | also measured |
| --- | --- | --- | --- | --- | --- | --- | --- | --- | --- | --- | --- | --- | --- |
| 4-fluoro N (5 (3 (3 hydroxy-3-methylbut-1-yn-1-yl)-[1,2,4]-triazolo[4,3-b]pyridazin-6-yl)-2-methoxypyridin-3-yl)benzenesulfonamide [Ex. 12] | 1.3 | 77.8 | 32 |  |  |  |  |  |  |  |  |  | AUClast ([1]; iv dosing 2 mg/kg): 411 ng·h/mL; T1/2 ([1]; iv dosing 2 mg/kg): 4.71 h; Vss ([1]; iv dosing 2 mg/kg): 18.42 L/kg |
| COc1ncc(-c2ccc3ncc(C#CC(C)(C)O)n3n2)cc1NS(=O)(=O)c1ccc(F)cc1F [Ex. 11, 2,4-difluoro N (5 (3 (3 hydroxy-3-methylbut-1-yn-1-yl)imidazo[1,2-b]pyridazin-6-yl)-2-methoxypyridin-3-yl)benzenesulfonamide] |  |  | 8 |  |  |  |  | 115.8 | 0.33 | 40400 | 4.92 | 0.15 |  |
| COc1ncc(-c2ccc3ncc(C#CC(C)(C)O)n3c2)cc1NS(=O)(=O)c1ccc(F)cc1F [Ex. 17, 2,4-difluoro-N-(5-(3-(3-hydroxy-3-methylbut-1-yn-1-yl)imidazo[1,2-a]pyridin-6-yl)-2-methoxypyridin-3-yl)benzenesulfonamide] |  |  |  | 8.53 | 3.4 | 4.66 | 8.87 | 123.1 | 0.5 | 38700 | 5.3 | 0.17 |  |
| COc1ncc(-c2ccc3nnc(C#CC(C)O)n3c2)cc1NS(=O)(=O)c1ccc(F)cc1F (stereo not shown) [Ex. 23, 2,4-difluoro N (5 (3 (3 hydroxybut-1-yn-1-yl)-[1,2,4]-triazolo[4,3-a]pyridin-6-yl)-2-methoxypyridin-3-yl)benzenesulfonamide] |  |  |  |  |  |  |  | 5.9 | 30.2 | 561 | 0.15 | 0.19 | Human T1/2 [2, 4]: ∞; Rat T1/2 [3, 5]: ∞ |

The next lines start with results.

| F ([1]; iv dose 2 mg/kg) [%] | Cl/F ([1]; iv dosing 2 mg/kg) [mL/min/kg] | IC50 (PI3K p110α/p85α (h)) [nM] | half-life at 5 μM [2, 4] [h] | CLint scaled at 5 μM [2] [mL/min/kg] | half-life at 5 μM [3, 5] [h] | CLint scaled at 5 μM [3] [mL/min/kg] | F ([1]; iv dose 1 mg/kg) [%] | Cl/F ([1]; iv dosing 1 mg/kg) [mL/min/kg] | AUC(0-t) ([1]; iv dosing 1 mg/kg) [ng·h/mL] | half-life ([1]; iv dosing 1 mg/kg) [h] | Vd ([1]; iv dosing 1 mg/kg) [L/kg] | Compound | also measured |
| --- | --- | --- | --- | --- | --- | --- | --- | --- | --- | --- | --- | --- | --- |
|  |  | 41 | 1.87 | 15.5 | 0.666 | 62.1 |  |  |  |  |  | COc1ncc(-c2ccc3ncc(C#CC(C)(C)O)n3n2)cc1NS(=O)(=O)c1ccc(F)cc1 [Ex. 4, 4-fluoro-N-(5-(3-(3-hydroxy-3-methylbut-1-yn-1-yl)imidazo[1,2-b]pyridazin-6-yl)-2-methoxypyridin-3-yl)benzenesulfonamide] | IC50 (mTOR (h)): 19 nM |
|  |  | 17 | 1.14 | 25.4 | 0.595 | 69.5 | 95.6 | 6.17 | 2550 | 8.74 | 2.29 | CC#Cc1cnc2ccc(-c3cnc(OC)c(NS(=O)(=O)c4ccc(F)cc4)c3)nn12 [Ex. 5, 4-fluoro-N-(2-methoxy-5-(3-(prop-1-yn-1-yl)imidazo[1,2-b]pyridazin-6-yl)pyridin-3-yl)benzenesulfonamide] |  |
|  |  | 4 |  |  |  |  | 123.7 | 5.5 | 2660 | 3.7 | 1.25 | COc1ncc(-c2ccc3ncc(C#N)n3n2)cc1NS(=O)(=O)c1ccc(F)cc1 [Ex. 6, N-(5-(3-cyanoimidazo[1,2-b]pyridazin-6-yl)-2-methoxypyridin-3-yl)-4-fluorobenzenesulfonamide] | TGI % U87MG (U87MG glioblastoma cells; 0.3 mg/kg oral gavage): 14%; TGI % U87MG (U87MG glioblastoma cells; 1 mg/kg oral gavage): 41%; TGI % U87MG (U87MG glioblastoma cells; 3 mg/kg oral gavage): 71% |
| 95.4 | 0.67 | 20 |  |  |  |  |  |  |  |  |  | C#Cc1cnc2ccc(-c3cnc(Cl)c(NS(=O)(=O)c4ccc(F)cc4)c3)nn12 [Ex. 7, N-(2-chloro-5-(3-ethynylimidazo[1,2-b]pyridazin-6-yl)pyridin-3-yl)-4-fluorobenzenesulfonamide] | AUC(0-t) ([1]; iv dosing 2 mg/kg): 48100 ng·h/mL; half-life ([1]; iv dosing 2 mg/kg): 3.19 h; Vd ([1]; iv dosing 2 mg/kg): 0.17 L/kg; IC50 (mTOR (h)): 24 nM |
| 79.88 | 0.5 | 3 | 8.79 | 3.3 | 4.66 | 8.89 |  |  |  |  |  | COc1ncc(-c2ccc3ncc(C#CC(C)O)n3n2)cc1NS(=O)(=O)c1ccc(F)cc1F (stereo not shown) [Ex. 10, 2,4-difluoro-N-(5-(3-(3-hydroxybut-1-yn-1-yl)imidazo[1,2-b]pyridazin-6-yl)-2-methoxypyridin-3-yl)benzenesulfonamide] | AUC(0-t) ([1]; iv dosing 2 mg/kg): 67000 ng·h/mL; half-life ([1]; iv dosing 2 mg/kg): 4.27 h; Vd ([1]; iv dosing 2 mg/kg): 0.14 L/kg; TGI % U87MG (U87MG glioblastoma cells; 1 mg/kg oral gavage): 32%; TGI % U87MG (U87MG glioblastoma cells; 3 mg/kg oral gavage): 44%; TGI % U87MG (U87MG glioblastoma cells; 10 mg/kg oral gavage): 65% |
|  |  |  | 18.8 | 1.54 | 1.59 | 26.1 | 95.8 | 1.5 | 11300 | 3.08 | 0.32 | CC#Cc1cnc2ccc(-c3cnc(OC)c(NS(=O)(=O)c4ccc(F)cc4F)c3)nn12 [Ex. 13, 2,4-difluoro-N-(2-methoxy-5-(3-(prop-1-yn-1-yl)imidazo[1,2-b]pyridazin-6-yl)pyridin-3-yl)benzenesulfonamide] |  |
